Assay results: ChEMBL document CHEMBL5523739, “NN1213 - A Potent, Long-Acting, and Selective Analog of Human Amylin” (J Med Chem, 2024)
Blank lines part the entries; values can stand above or below the molecule they belong to.

Legend:
[1] = target: T1, Amylin receptor AMY3; CALCR/RAMP3 (Homo sapiens, UniProt O60896+P30988); test: Displacement of 125I-rat amylin from human AMY3R complex of CTR/RAMP3 expressed in Baby hamster kidney cell membrane incubated for 120 mins by SPA method; assay type: cell membranes
T1 sequence (P30988 whole entry): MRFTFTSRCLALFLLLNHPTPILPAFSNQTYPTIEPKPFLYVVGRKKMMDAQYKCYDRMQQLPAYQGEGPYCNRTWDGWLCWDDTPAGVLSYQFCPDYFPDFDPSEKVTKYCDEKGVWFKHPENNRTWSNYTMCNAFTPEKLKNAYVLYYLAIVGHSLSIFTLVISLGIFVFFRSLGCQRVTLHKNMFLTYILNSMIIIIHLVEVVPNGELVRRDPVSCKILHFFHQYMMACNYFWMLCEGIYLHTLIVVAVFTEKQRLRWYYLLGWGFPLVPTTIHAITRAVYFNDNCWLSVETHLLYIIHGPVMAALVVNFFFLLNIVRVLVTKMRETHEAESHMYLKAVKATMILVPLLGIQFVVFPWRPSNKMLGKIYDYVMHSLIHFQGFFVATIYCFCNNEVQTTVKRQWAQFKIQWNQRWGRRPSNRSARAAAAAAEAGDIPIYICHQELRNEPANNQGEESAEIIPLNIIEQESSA
T1 sequence (O60896 whole entry): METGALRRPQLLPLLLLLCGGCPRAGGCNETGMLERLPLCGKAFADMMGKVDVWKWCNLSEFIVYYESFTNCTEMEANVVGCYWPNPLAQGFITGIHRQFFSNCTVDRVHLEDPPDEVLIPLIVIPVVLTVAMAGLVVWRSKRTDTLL

Rattus norvegicus [2] = test: Appetite suppressing activity in rat assessed as reduction in food intake at 30 nmol/kg, sc measured upto 24 hrs relative to control; assay type: functional; parameters: scale not given: the % may be the effect or the level left
[3] = Stability against amyloid fibril formation at pH 7.5 assessed as compound recovery at 1 uM measured after 45 hrs by ThT assay; assay type: physicochemical; conditions: pH 7.5, 45 h
Calcitonin receptor [4] = target: T2, Calcitonin receptor (Rattus norvegicus, UniProt P32214); test: Displacement of 125I-Calcitonin from rat CTR expressed in Baby hamster kidney cell membrane incubated for 120 mins by SPA method; assay type: cell membranes
T2 sequence (P32214 whole entry): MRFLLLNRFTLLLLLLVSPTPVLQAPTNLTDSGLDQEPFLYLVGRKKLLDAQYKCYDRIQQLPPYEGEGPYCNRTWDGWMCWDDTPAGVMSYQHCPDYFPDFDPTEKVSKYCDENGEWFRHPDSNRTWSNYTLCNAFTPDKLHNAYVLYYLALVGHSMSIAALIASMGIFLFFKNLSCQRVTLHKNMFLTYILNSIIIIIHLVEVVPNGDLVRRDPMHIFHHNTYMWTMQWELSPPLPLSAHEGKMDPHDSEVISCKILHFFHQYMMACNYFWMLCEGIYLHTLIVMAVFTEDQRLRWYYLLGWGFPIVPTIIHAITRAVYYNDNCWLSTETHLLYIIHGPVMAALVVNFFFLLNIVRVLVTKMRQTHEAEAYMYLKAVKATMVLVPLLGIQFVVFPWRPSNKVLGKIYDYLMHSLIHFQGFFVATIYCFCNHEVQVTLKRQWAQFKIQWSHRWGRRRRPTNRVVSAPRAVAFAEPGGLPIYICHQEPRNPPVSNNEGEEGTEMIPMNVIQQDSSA

[5] = target: T3, Amylin receptor AMY3; CALCR/RAMP3 (Rattus norvegicus, UniProt P32214+Q9JJ73); test: Displacement of 125I-rat amylin from rat AMY3R complex of CTR/RAMP3 expressed in Baby hamster kidney cell membrane incubated for 120 mins by SPA method; assay type: cell membranes
T3 sequence (P32214 whole entry): T2 sequence (P32214 whole entry)
T3 sequence (Q9JJ73 whole entry): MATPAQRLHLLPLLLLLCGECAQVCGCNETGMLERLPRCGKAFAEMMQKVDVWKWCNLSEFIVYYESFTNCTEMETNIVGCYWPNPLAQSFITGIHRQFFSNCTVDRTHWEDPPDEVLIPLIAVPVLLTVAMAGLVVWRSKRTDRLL

[6] = Stability against amyloid fibril formation at pH 7.5 assessed as lag time at 1 uM measured after 45 hrs by ThT assay; assay type: physicochemical; conditions: pH 7.5, 45 h
Calcitonin receptor [7] = target: T4, Calcitonin receptor (Homo sapiens, UniProt P30988); test: Agonist activity at human CTR expressed in Baby hamster kidney cells incubated for 3 hrs followed by medium replacement without compound measured after 30 mins by luciferase reporter assay; assay type: functional, cell-based, Baby hamster kidney cell
T4 sequence (P30988 whole entry): T1 sequence (P30988 whole entry)

Rattus norvegicus [8] = organism: Rattus norvegicus; test: Selectivity ratio of EC50 for rat CTR expressed in Baby hamster kidney cells to EC50 for rat AMY3R complex of CTR/RAMP3 expressed in Baby hamster kidney cells; assay type: cell-based
Calcitonin receptor [9] = target: T2, Calcitonin receptor; test: Agonist activity at rat CTR expressed in Baby hamster kidney cells incubated for 3 hrs by cAMP assay; assay type: functional, cell-based, Baby hamster kidney cell
Rattus norvegicus [10] = organism: Rattus norvegicus; test: Selectivity ratio of IC50 for rat CTR expressed in Baby hamster kidney cell membrane to IC50 for rat AMY3R complex of CTR/RAMP3 expressed in Baby hamster kidney cell membrane; assay type: cell-based
Calcitonin receptor [11] = target: T4, Calcitonin receptor; test: Displacement of 125I-Calcitonin from human CTR expressed in Baby hamster kidney cell membrane incubated for 120 mins by SPA method; assay type: cell membranes
Rattus norvegicus [12] = test: Appetite suppressing activity in rat assessed as reduction in food intake at 30 nmol/kg, sc measured for 24 to 48 hrs relative to control; assay type: functional; parameters: scale not given: the % may be the effect or the level left; conditions: time 24-48 hrs
[13] = Solubility of compound at pH 8 incubated overnight by UPLC analysis; assay type: physicochemical; conditions: buffer
[14] = Solubility of compound at pH 3 incubated overnight by UPLC analysis; assay type: physicochemical; conditions: buffer
[15] = Solubility of compound at pH 7 incubated overnight by UPLC analysis; assay type: physicochemical; conditions: buffer
[16] = Solubility of compound at pH 6.5 incubated overnight by UPLC analysis; assay type: physicochemical; conditions: buffer
Homo sapiens [17] = organism: Homo sapiens; test: Selectivity ratio of IC50 for human CTR expressed in Baby hamster kidney cell membrane to IC50 for human AMY3R complex of CTR/RAMP3 expressed in Baby hamster kidney cell membrane; assay type: cell-based
Homo sapiens [18] = organism: Homo sapiens; test: Selectivity ratio of EC50 for human CTR expressed in Baby hamster kidney cells to EC50 for human AMY3R complex of CTR/RAMP3 expressed in Baby hamster kidney cells; assay type: cell-based
[19] = target: T3, Amylin receptor AMY3; CALCR/RAMP3; test: Agonist activity at rat AMY3R complex of CTR/RAMP3 expressed in Baby hamster kidney cells incubated for 3 hrs by cAMP assay; assay type: functional, cell-based, Baby hamster kidney cell
[20] = Solubility of compound at pH 4 incubated overnight by UPLC analysis; assay type: physicochemical; conditions: buffer
[21] = Solubility of compound at pH 5 incubated overnight by UPLC analysis; assay type: physicochemical; conditions: buffer
[22] = Solubility of compound at pH 7.5 incubated overnight by UPLC analysis; assay type: physicochemical; conditions: buffer
[23] = target: T1, Amylin receptor AMY3; CALCR/RAMP3; test: Agonist activity at human AMY3R complex of CTR/RAMP3 expressed in Baby hamster kidney cells incubated for 3 hrs followed by medium replacement without compound measured after 30 mins by luciferase reporter assay; assay type: functional, cell-based, Baby hamster kidney cell
[24] = Solubility of compound at pH 6 incubated overnight by UPLC analysis; assay type: physicochemical; conditions: buffer
[25] = target: T5, Amylin receptor AMY3; CALCR/RAMP3 (Homo sapiens, UniProt P30988+O60896); test: Agonist activity at human AMY3R complex of CTR/RAMP3 transduced in human HeLa cells by cAMP assay; assay type: functional, cell-based
T5 sequence (P30988 whole entry): T1 sequence (P30988 whole entry)
T5 sequence (O60896 whole entry): T1 sequence (O60896 whole entry)

[26] = target: Adrenomedullin receptor, AM2; CALCRL/RAMP3 (Homo sapiens, UniProt Q16602+O60896); test: Agonist activity at human AM2R complex of CRLR/RAMP3 transduced in human HeLa cells by cAMP assay; assay type: functional, cell-based
[27] = target: Calcitonin-gene-related peptide receptor, CALCRL/RAMP1 (Homo sapiens, UniProt O60894+Q16602); test: Agonist activity at human CGRPR complex of CRLR/RAMP1 transduced in human HeLa cells by cAMP assay; assay type: functional, cell-based; conditions: hela
[28] = target: Amylin receptor AMY2; CALCR/RAMP2 (Homo sapiens, UniProt P30988+O60895); test: Agonist activity at human AMY2R complex of CTR/RAMP2 transduced in human HeLa cells by cAMP assay; assay type: functional, cell-based; conditions: hela
[29] = target: Amylin receptor AMY1, CALCR/RAMP1 (Homo sapiens, UniProt P30988+O60894); test: Agonist activity at human AMY1R complex of CTR/RAMP1 transduced in human HeLa cells by cAMP assay; assay type: functional, cell-based; conditions: hela
Calcitonin receptor [30] = target: T4, Calcitonin receptor; test: Agonist activity at human CTR transduced in human HeLa cells by cAMP assay; assay type: functional, cell-based; conditions: hela

Sequence of Adrenomedullin receptor, AM2; CALCRL/RAMP3 (Q16602 whole entry, one chain of several): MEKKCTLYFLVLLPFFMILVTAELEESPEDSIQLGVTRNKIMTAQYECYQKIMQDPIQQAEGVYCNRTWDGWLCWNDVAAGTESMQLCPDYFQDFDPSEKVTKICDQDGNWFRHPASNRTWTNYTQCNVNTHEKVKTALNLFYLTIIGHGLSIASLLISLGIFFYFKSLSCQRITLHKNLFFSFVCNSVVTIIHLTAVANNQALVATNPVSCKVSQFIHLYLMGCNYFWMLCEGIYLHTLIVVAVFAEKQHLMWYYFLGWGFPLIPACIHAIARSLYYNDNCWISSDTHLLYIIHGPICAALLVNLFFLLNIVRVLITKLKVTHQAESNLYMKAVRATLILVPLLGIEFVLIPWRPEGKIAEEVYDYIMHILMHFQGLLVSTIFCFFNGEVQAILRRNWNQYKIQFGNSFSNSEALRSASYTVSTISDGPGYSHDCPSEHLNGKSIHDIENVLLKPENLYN
Sequence of Calcitonin-gene-related peptide receptor, CALCRL/RAMP1 (O60894 whole entry): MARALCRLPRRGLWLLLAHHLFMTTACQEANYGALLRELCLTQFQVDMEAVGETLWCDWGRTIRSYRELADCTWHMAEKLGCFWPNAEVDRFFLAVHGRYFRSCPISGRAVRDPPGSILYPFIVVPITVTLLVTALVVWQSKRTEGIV
Sequence of Calcitonin-gene-related peptide receptor, CALCRL/RAMP1 (Q16602 whole entry): as the sequence (Q16602 whole entry, one chain of several) above
Sequence of Amylin receptor AMY2; CALCR/RAMP2 (O60895 whole entry, one chain of several): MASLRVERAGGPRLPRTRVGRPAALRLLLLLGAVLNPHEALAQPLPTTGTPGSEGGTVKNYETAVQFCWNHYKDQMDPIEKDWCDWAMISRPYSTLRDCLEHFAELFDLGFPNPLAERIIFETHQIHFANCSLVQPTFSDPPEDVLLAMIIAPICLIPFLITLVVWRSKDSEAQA
Sequence of Amylin receptor AMY1, CALCR/RAMP1 (O60894 whole entry, one chain of several): as the sequence (O60894 whole entry) above

- IC50 [1]: 1.14 nM
- Drug recovery [3]: 0%
- IC50 (Calcitonin receptor [4]): 350 nM
- IC50 [5]: 3.01 nM
- Time [6]: 34 h
- EC50 (Calcitonin receptor [7]): 10 nM
- EC50 (Calcitonin receptor [9]): 142 nM
- IC50 (Calcitonin receptor [11]): 102 nM
- solubility [13]: ≥ 200 µM
- solubility [14]: ≥ 200 µM
- solubility [15]: ≥ 200 µM
- solubility [16]: ≥ 200 µM
- EC50 [19]: 1.79 nM
- solubility [20]: ≥ 200 µM
- solubility [21]: ≥ 200 µM
- solubility [22]: ≥ 200 µM
- EC50 [23]: 0.432 nM
- solubility [24]: ≥ 200 µM
Molecule: CC[C@H](C)[C@H](NC(=O)[C@H](C)NC(=O)CNC(=O)[C@H](Cc1ccccc1)NC(=O)[C@H](CC(N)=O)NC(=O)[C@@H]1CCCN1C(=O)[C@H](CO)NC(=O)[C@H](CO)NC(=O)[C@H](Cc1c[nH]cn1)NC(=O)[C@H](CCCNC(=N)N)NC(=O)[C@H](CC(C)C)NC(=O)[C@H](Cc1ccccc1)NC(=O)[C@H](CC(N)=O)NC(=O)[C@H](C)NC(=O)[C@H](CC(C)C)NC(=O)[C@H](CCCNC(=N)N)NC(=O)[C@H](CCC(N)=O)NC(=O)[C@@H](NC(=O)[C@H](C)NC(=O)[C@@H]1CSSC[C@H](NC(=O)[C@@H](N)CCCCN)C(=O)N[C@@H](CC(N)=O)C(=O)N[C@@H]([C@@H](C)O)C(=O)N[C@@H](C)C(=O)N[C@@H]([C@@H](C)O)C(=O)N1)[C@@H](C)O)C(=O)N1CCC[C@H]1C(=O)N[C@@H](CO)C(=O)N[C@@H](CO)C(=O)N[C@H](C(=O)N[C@@H](CC(N)=O)C(=O)N[C@H](C(=O)NCC(=O)N[C@@H](CO)C(=O)N[C@@H](CC(N)=O)C(=O)N[C@H](C(=O)N[C@@H](Cc1ccc(O)cc1)C(N)=O)[C@@H](C)O)C(C)C)[C@@H](C)O
- Activity (Rattus norvegicus [2]): 22%
- Ratio EC50 (Rattus norvegicus [8]): 79
- Ratio IC50 (Rattus norvegicus [10]): 116
- Activity (Rattus norvegicus [12]): 1%
- Ratio IC50 (Homo sapiens [17]): 90
- Ratio EC50 (Homo sapiens [18]): 23

- pEC50 [25]: 10.33
- pEC50 [26]: 6.12
- pEC50 [27]: 6.25
- pEC50 [28]: 10.37
- pEC50 [29]: 10.73
- pEC50 (Calcitonin receptor [30]): 10.64
Molecule: CAGRILINTIDE
